Like-named read-outs stand apart in the source and are kept apart here.
Assays:
[1] = tested on: snHAS; test: HA formation by HABP-HRP HA detection kit (TMB, OD450), Michaelis-Menten fit; type: biochemical, Candidatus Mycoplasma liparidae; conditions: 15 mM MgCl2, 50 mM PBS, 5 mM DTT, 37 °C, 30 µM enzyme, read-out: snHASE173D
From the text: HA formation by HABP-HRP HA detection kit (TMB, OD450), Michaelis-Menten fit on snHAS

[2] = tested on: snHAS; test: as above; type: biochemical, Candidatus Mycoplasma liparidae; conditions: 15 mM MgCl2, 50 mM PBS, 5 mM DTT, 37 °C, 30 µM enzyme

Compound: O=C(O)[C@H]1O[C@H](OP(=O)(O)OP(=O)(O)OC[C@H]2O[C@@H](n3ccc(=O)[nH]c3=O)[C@H](O)[C@@H]2O)[C@H](O)[C@@H](O)[C@@H]1O [UDP-GlcA]
- Km ([1]; 1 mM UDP-GlcNAc fixed): 210 ± 20 µM
- Km ([2]; 1 mM UDP-GlcNAc fixed): 39 ± 5 µM

Compound: CC(=O)N[C@H]1[C@@H](OP(=O)(O)OP(=O)(O)OC[C@H]2O[C@@H](n3ccc(=O)[nH]c3=O)[C@H](O)[C@@H]2O)O[C@H](CO)[C@@H](O)[C@@H]1O [UDP-GlcNAc]
- Km ([1]; 1 mM UDP-GlcA fixed): 410 ± 70 µM
- Km ([2]; 1 mM UDP-GlcA fixed): 258 ± 45 µM
